In patent publication US12281122B1, “PI3K inhibitors” (Cogent Biosciences, Inc., priority 2023, dated 2025):

Columns and labels:
[1] = tested on: SKBR3 (PI3Kα-Wild Type) cell line; experiment: HTRF phospho-AKT(S473) cell assay in SKBR3 cells; type: cell-based, human; conditions: Homo sapiens, SK-BR-3; SKBR3 (PI3Kα-Wild Type) cells, HTRF phospho-AKT(S473), 2 hours compound incubation, PDGF-BB stimulated
Outline: (§1)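 T47D: RPMI + 10% FBS + 0.2 units/mL insulin, top 5 μM. SKBR3: McCoy's 5A + 10% FBS, top 10 μM, 70 ng/ml PDGF-BB last 15 min. Both: 12-pt 1:3, 2 h, 37° C, max 0.5% DMSO; HTRF pAKT(S473); IC50.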

[2] = tested on: T47D (PI3Kα-H1047R) cell line; experiment: HTRF phospho-AKT(S473) cell assay in T47D cells; type: cell-based, human; conditions: Homo sapiens; T47D (PI3Kα-H1047R) cells, HTRF phospho-AKT(S473), 2 hours compound incubation
Outline: as §1

PI3Kα H1047R = PI3Kα H1047R (Homo sapiens, UniProt P42336, H1047R); experiment: PI3Kα H1047R enzyme assay (Transcreener ADP2 TR-FRET Red Assay); type: biochemical; conditions: purified recombinant full-length protein; 2 hours pre-incubation with compound
Experimental: (§2) Activity against PI3Kα and PI3Kα H1047R enzymes were determined in biochemical assays using purified recombinant full-length proteins with the Transcreener ADP^2 TR-FRET Red Assay from Bellbrook Labs. (Catalogue number 3011-10K). Test compounds were dissolved in DMSO and were tested in 11 point 1:3 serial dilutions, typical final concentration range from 50,000 nM to 0.85 nM. Enzymes were pre-incubated with compounds for 2 hours at room temperature prior to initiating the reactions. Assays were initiated with a 2×ATP/PI(4,5)P2 diC8 substrate mixture. After 60 minutes at room temperature, the reactions were quenched with detection reagent and incubated for an additional 60 minutes at room temperature. The plates were read using a multimode reader and the emission ratio of 665 nm to 615 nm was determined. This ratio was converted to percent of control (POC). [1-(high control-sample signal)/(high control-low control)]*100. Wells without compound were used to determine high control values and wells without enzyme were used to determine low control values. The POC values were fit using a four-parameter logistic model and the value where the fit curve was equal to 50 POC was reported as the IC50 using the Signals VitroVivo software package (PerkinElmer). Final assay conditions were: 40 mM HEPES pH 7.5, 20 mM NaCl, 25 mM MgCl2, 0.01% Triton X-100. The enzyme source, catalogue number, final enzyme concentration, and final ATP and PI(4,5)P2 diC8 concentration can be found in the table E10 below.

PI3Kα = PI3Kα (Homo sapiens, UniProt P42336); experiment: PI3Kα enzyme assay (Transcreener ADP2 TR-FRET Red Assay); type: biochemical; conditions: purified recombinant full-length protein; 2 hours pre-incubation with compound; read-out: PI3Kα WT IC50
Experimental: as §2

PI3Kα, sequence (P42336 whole entry): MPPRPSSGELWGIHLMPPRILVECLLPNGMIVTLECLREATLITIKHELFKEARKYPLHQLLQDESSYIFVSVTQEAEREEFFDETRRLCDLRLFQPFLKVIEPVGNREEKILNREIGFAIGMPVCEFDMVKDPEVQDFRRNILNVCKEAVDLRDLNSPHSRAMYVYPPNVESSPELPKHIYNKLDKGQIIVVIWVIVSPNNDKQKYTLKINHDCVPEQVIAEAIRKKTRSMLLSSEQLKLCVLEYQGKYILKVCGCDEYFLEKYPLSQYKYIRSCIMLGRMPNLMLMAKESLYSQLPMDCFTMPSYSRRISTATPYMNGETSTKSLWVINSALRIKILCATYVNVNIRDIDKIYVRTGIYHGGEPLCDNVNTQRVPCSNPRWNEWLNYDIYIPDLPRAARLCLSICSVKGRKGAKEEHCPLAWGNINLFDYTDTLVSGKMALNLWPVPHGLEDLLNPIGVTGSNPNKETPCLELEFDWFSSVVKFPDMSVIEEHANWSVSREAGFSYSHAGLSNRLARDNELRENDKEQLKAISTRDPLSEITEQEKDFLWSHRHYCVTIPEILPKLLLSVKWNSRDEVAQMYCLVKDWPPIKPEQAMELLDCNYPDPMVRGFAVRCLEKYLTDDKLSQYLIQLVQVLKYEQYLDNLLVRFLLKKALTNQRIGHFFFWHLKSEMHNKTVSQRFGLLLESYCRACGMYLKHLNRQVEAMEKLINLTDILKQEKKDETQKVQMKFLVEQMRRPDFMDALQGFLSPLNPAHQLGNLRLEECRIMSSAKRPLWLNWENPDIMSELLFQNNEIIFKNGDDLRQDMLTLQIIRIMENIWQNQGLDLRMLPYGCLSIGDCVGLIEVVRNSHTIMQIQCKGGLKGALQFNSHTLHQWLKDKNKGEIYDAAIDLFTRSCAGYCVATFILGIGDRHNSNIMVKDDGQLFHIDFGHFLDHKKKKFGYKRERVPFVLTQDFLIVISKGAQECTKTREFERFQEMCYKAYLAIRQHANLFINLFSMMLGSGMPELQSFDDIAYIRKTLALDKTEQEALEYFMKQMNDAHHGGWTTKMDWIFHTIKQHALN
PI3Kα, sequence (P27986 2-724 partner): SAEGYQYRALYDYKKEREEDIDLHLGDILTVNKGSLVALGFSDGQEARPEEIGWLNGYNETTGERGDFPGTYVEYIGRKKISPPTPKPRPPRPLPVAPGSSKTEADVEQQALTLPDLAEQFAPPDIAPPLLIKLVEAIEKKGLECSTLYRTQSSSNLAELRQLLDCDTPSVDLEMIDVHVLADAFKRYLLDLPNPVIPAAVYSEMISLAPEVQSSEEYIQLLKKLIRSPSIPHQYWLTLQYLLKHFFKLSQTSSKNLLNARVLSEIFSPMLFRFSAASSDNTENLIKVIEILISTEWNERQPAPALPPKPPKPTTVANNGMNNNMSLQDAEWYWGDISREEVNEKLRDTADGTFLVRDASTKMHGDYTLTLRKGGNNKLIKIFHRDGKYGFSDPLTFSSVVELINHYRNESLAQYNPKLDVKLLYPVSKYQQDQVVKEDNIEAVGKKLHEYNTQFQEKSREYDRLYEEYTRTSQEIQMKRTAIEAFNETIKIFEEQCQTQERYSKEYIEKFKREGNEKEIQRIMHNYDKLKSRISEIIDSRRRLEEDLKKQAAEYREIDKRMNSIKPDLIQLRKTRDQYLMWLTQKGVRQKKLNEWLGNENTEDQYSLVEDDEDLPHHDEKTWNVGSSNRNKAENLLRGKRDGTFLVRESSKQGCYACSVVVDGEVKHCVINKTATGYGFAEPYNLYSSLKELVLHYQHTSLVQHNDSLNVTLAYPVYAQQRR
PI3Kα H1047R, sequence (P42336 whole entry H1047R): as the sequence (P42336 whole entry) above, with H1047R counted along it
PI3Kα H1047R, sequence (P27986 2-724 partner): as the sequence (P27986 2-724 partner) above

SMILES | IC50 [1] [nM] | IC50 [2] [nM] | IC50 (PI3Kα H1047R) [nM] | IC50 (PI3Kα) [nM]
Cc1cc([C@@H](C)Nc2ccc(F)cc2C(=O)NS(C)(=O)=O)c2nc(N3Cc4ccc(F)cc4C3)n(C)c(=O)c2c1 [Compound 63, (R)-5-fluoro-2-((1-(2-(5-fluoro-isoindolin-2-yl)-3,6-dimethyl-4-oxo-3,4-dihydroquinazolin-8-yl)ethyl)amino)-N-(methylsulfonyl) benzamide] | 1000 to 5000 | 1000 to 5000 | ≥ 1000 | ≥ 1000
Cc1cc([C@@H](C)Nc2ccn[nH]c2=O)c2nc(N3Cc4ccc(F)cc4C3)n(C)c(=O)c2c1 [Compound 95, (R)-2-(5-fluoroisoindolin-2-yl)-3,6-dimethyl-8-(1-((3-oxo-2,3-dihydropyridazin-4-yl)amino)ethyl)quinazolin-4(3H)-one] | 1000 to 5000 | 1000 to 5000 | ≥ 1000 | ≥ 1000
CC(=O)NS(=O)(=O)c1nc(Cl)ccc1N[C@H](C)c1cc(F)cc2c(=O)n(C)c(N3CCC(F)(F)CC3)nc12 [Compound 77, (R)-N-((6-chloro-3-((1-(2-(4,4-difluoropiperidin-1-yl)-6-fluoro-3-methyl-4-oxo-3,4-dihydroquinazolin-8-yl)ethyl)amino)pyridin-2-yl)sulfonyl)acetamide] | ≥ 5000 | 1000 to 5000 | ≥ 1000 | ≥ 1000
Cc1cc([C@@H](C)Nc2ccc(Cl)nc2C(=O)NS(C)(=O)=O)c2nc(N3CCC4(CCOCC4)C3)n(C)c(=O)c2c1 [Compound 33, (R)-6-chloro-3-((1-(3,6-dimethyl-4-oxo-2-(8-oxa-2-azaspiro[4.5]decan-2-yl)-3,4-dihydroquinazolin-8-yl)ethyl)amino)-N-(methylsulfonyl) picolinamide] | 1000 to 5000 | 250 to 500 | 250 to 500 | ≥ 1000
Cc1cc([C@@H](C)Nc2ccc(Cl)nc2C(=O)NS(C)(=O)=O)c2nc(N3C[C@H](C)O[C@@H](C)C3)n(C)c(=O)c2c1 [Compound 25, 6-chloro-3-(((R)-1-(2-((2S,6S)-2,6-dimethylmorpholino)-3,6-dimethyl-4-oxo-3,4-dihydroquinazolin-8-yl)ethyl)amino)-N-(methylsulfonyl) picolinamide] | 1000 to 5000 | 250 to 500 | ≥ 1000 | ≥ 1000
Cc1cc([C@@H](C)Nc2ccc(Cl)nc2C(=O)NS(C)(=O)=O)c2nc(N3CCC(F)(F)CC3)n(C)c(=O)c2c1 [Compound 57, (R)-6-chloro-3-((1-(2-(4,4-difluoropiperidin-1-yl)-3,6-dimethyl-4-oxo-3,4-dihydroquinazolin-8-yl)ethyl)amino)-N-(methylsulfonyl) picolinamide] | 1000 to 5000 | 500 to 1000 | ≥ 1000 | ≥ 1000
Cc1cc([C@@H](C)Nc2ccc(Cl)nc2C(=O)NS(C)(=O)=O)c2nc(NC(C)(C)C)n(C)c(=O)c2c1 [Compound 7, (R)-3-((1-(2-(tert-butylamino)-3,6-dimethyl-4-oxo-3,4-dihydroquinazolin-8-yl)ethyl)amino)-6-chloro-N-(methylsulfonyl) picolinamide] | ≥ 5000 | 1000 to 5000 | ≥ 1000 | ≥ 1000
Cc1cc([C@@H](C)Nc2ccc(Cl)nc2C(=O)NS(C)(=O)=O)c2nc(-c3cnc(C)s3)n(C)c(=O)c2c1 [Compound 89, (R)-6-chloro-3-((1-(3,6-dimethyl-2-(2-methylthiazol-5-yl)-4-oxo-3,4-dihydroquinazolin-8-yl)ethyl)amino)-N-(methylsulfonyl) picolinamide] | 1000 to 5000 | < 250 | 100 to 250 | 500 to 1000
Cc1cc([C@@H](C)Nc2ccc(Cl)nc2C(=O)NS(C)(=O)=O)c2nc(-c3cnc(C)c(F)c3)n(C)c(=O)c2c1 [Compound 91, (R)-6-chloro-3-((1-(2-(5-fluoro-6-methylpyridin-3-yl)-3,6-dimethyl-4-oxo-3,4-dihydroquinazolin-8-yl)ethyl)amino)-N-(methylsulfonyl) picolinamide] | 1000 to 5000 | < 250 | 250 to 500 | ≥ 1000
C[C@@H](Nc1cccnc1C(=O)NS(C)(=O)=O)c1cc(F)cc2c(=O)n(C)c(N3Cc4ccc(F)cc4C3)nc12 [Compound 60, (R)-3-((1-(6-fluoro-2-(5-fluoro-isoindolin-2-yl)-3-methyl-4-oxo-3,4-dihydroquinazolin-8-yl)ethyl)amino)-N-(methylsulfonyl) picolinamide] | 1000 to 5000 | 1000 to 5000 | ≥ 1000 | ≥ 1000
C[C@@H](Nc1ccc(Cl)nc1C(=O)NS(C)(=O)=O)c1cccc2c(=O)n(C)c(N3CCC(F)(F)CC3)nc12 [Compound 39, (R)-6-chloro-3-((1-(2-(4,4-difluoropiperidin-1-yl)-3-methyl-4-oxo-3,4-dihydroquinazolin-8-yl)ethyl)amino)-N-(methylsulfonyl) picolinamide] | 1000 to 5000 | < 250 | 500 to 1000 | ≥ 1000
Cc1cc([C@@H](C)Nc2cc(F)cnc2C(=O)NS(C)(=O)=O)c2nc(N3Cc4ccc(F)cc4C3)n(C)c(=O)c2c1 [Compound 68, (R)-5-fluoro-3-((1-(2-(5-fluoro-isoindolin-2-yl)-3,6-dimethyl-4-oxo-3,4-dihydroquinazolin-8-yl)ethyl)amino)-N-(methylsulfonyl) picolinamide] | ≥ 5000 | 1000 to 5000 | ≥ 1000 | ≥ 1000
Cc1cc([C@@H](C)Nc2ccc(Cl)nc2C(=O)NS(C)(=O)=O)c2nc(N3CCCC3)n(C)c(=O)c2c1 [Compound 16] | 1000 to 5000 | 250 to 500 | 250 to 500 | ≥ 1000
Cc1cc([C@@H](C)Nc2ccc(C)[nH]c2=O)c2nc(N3Cc4ccc(F)cc4C3)n(C)c(=O)c2c1 [Compound 97, (R)-2-(5-fluoroisoindolin-2-yl)-3,6-dimethyl-8-(1-((6-methyl-2-oxo-1,2-dihydropyridin-3-yl)amino)ethyl)quinazolin-4(3H)-one] | ≥ 5000 | 500 to 1000 | ≥ 1000 | ≥ 1000
Cc1cc([C@@H](C)Nc2ccc(Cl)nc2S(=O)(=O)NC(=O)C2CC2)c2nc(N3Cc4ccc(F)cc4C3)n(C)c(=O)c2c1 [Compound 79, (R)-N-((6-chloro-3-((1-(2-(5-fluoroisoindolin-2-yl)-3,6-dimethyl-4-oxo-3,4-dihydroquinazolin-8-yl)ethyl)amino)pyridin-2-yl)sulfonyl)cyclopropane-carboxamide] | ≥ 5000 | 250 to 500 | 100 to 250 | ≥ 1000
C[C@@H](Nc1ccc(Cl)[nH]c1=O)c1cc(F)cc2c(=O)n(C)c(N3Cc4ccc(F)cc4C3)nc12 [Compound 99, (R)-8-(1-((6-chloro-2-oxo-1,2-dihydropyridin-3-yl)amino)ethyl)-6-fluoro-2-(5-fluoroisoindolin-2-yl)-3-methylquinazolin-4(3H)-one] | ≥ 5000 | 500 to 1000 | 100 to 250 | ≥ 1000
Cc1ccc(N[C@H](C)c2cccc3c(=O)n(C)c(N4Cc5ccc(F)cc5C4)nc23)c(C(=O)NS(C)(=O)=O)n1 [Compound 2, (R)-3-((1-(2-(5-fluoroisoindolin-2-yl)-3-methyl-4-oxo-3,4-dihydroquinazolin-8-yl)ethyl)amino)-6-methyl-N-(methylsulfonyl) picolinamide] | ≥ 5000 | 1000 to 5000 | ≥ 1000 | ≥ 1000
C[C@@H](Nc1ccc(Cl)[nH]c1=O)c1cc(F)cc2c(=O)n(C)c(N3Cc4cnn(C)c4C3)nc12 [Compound 100, (R)-8-(1-((6-chloro-2-oxo-1,2-dihydropyridin-3-yl)amino)ethyl)-6-fluoro-3-methyl-2-(1-methyl-4,6-dihydropyrrolo[3,4-c]pyrazol-5(1H)-yl)quinazolin-4(3H)-one] | ≥ 5000 | < 250 | < 100 | ≥ 1000
Cc1cc([C@@H](C)Nc2ccc(Cl)nc2C(=O)NS(C)(=O)=O)c2nc(N3C[C@H]4C[C@@H]3CO4)n(C)c(=O)c2c1 [Compound 26, 3-(((R)-1-(2-((1R,4R)-2-oxa-5-azabicyclo[2.2.1]heptan-5-yl)-3,6-dimethyl-4-oxo-3,4-dihydroquinazolin-8-yl)ethyl)amino)-6-chloro-N-(methylsulfonyl) picolinamide] | 1000 to 5000 | < 250 | 500 to 1000 | ≥ 1000
